Data as given in patent US20240060989A1, “METHODS FOR MEASURING CRALBP ACTIVITY” (NOVARTIS AG, priority 2019, published 2024).

Target: T1, human CRALBP protein (Homo sapiens, UniProt P12271)
T1 construct: purchased GeneTex GTX109228-pro
Assay: CRALBP binding assay, Biacore surface plasmon resonance (proteinA/G capture)
Conditions: for Ka: 1:1 binding model, Biacore T200
Procedure: Binding of 11-cis-retinol to human CRALBP protein was assessed for affinity determinations using Biacore. Kinetic rate constants was performed via surface plasmon resonance (SPR) using the Biacore T200 instrument (Cytiva, formerly GE Healthcare Lifesciences) as described below. The proteinA/G capture method was utilized in order to determine kinetics for 11-cis-retinol.
Recombinant proteinA/G (PIERCE, Cat #21186) was immobilized on the chip surface by using amino-coupling procedure according to the supplier's instruction (Cytiva, BR-1000-50). This immobilized proteinA/G captured commercial anti-CRALBP mouse IgG (Sigma, WH0006017M1, lot #11319-1H7), which then captured human CARLBP protein (GeneTex, GTX109228-pro, lot #42226) on chip surface. The 11-cis-retinol (Biosynth Carbosynth, FR163659) flowed over as analyte.
The 11-cis-retinol concentration started at […] and was serially diluted at one part to one part for five levels of concentration. Regeneration was performed at the end of each cycle using Glycine-HCl pH2.0 (Cytiva, BR-1003-55). The sample dilution step and Biacore experiment were performed either under ambient light or dark condition in which the Biacore sample compartment door was covered by aluminum foil.
Double reference subtraction was completed to generate final data. Kinetic rate constants was obtained by applying 1:1 binding model with Biacore T200 evaluation 3.0 software, wherein the Rmax values were fit locally. Binding was assess under dark and ambient light conditions.

T1 sequence (P12271 whole entry): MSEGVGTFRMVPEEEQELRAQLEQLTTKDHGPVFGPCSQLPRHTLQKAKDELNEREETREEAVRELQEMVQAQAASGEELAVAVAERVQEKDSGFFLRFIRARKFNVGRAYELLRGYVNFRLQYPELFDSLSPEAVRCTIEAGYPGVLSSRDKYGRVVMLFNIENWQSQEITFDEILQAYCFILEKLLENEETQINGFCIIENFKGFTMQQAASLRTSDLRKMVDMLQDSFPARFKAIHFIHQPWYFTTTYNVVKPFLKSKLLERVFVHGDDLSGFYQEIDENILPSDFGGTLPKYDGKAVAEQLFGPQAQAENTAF

## CC1=C(/C=C/C(C)=C/C=C\C(C)=C\CO)C(C)(C)CCC1 [11-cis-retinol]
Ambient light (FIG. 2A)
  binding to human CRALBP: able to bind
Ambient light
  Ka: 12.69 M⁻¹ s⁻¹
Dark (FIG. 2B)
  binding to human CRALBP: able to bind
dark
  Ka: 21.03 M⁻¹ s⁻¹
